In this experiment the test system is GFAP. Kind of experiment: IHC of GFAP (astrocyte activation) in 5xFAD brain sections. To be noted: for Figure 9E, IHC signal: individual animals. In kind it is in vivo, mouse. An excerpt:
Following the behavioral experiments, we assessed brain pathologies associated with AD present in the 5xFAD mice ([37]). Therefore, 5 days following the last behavioral experiment, and 1 month after the start of YB-537 consumption, mice were sacrificed, and coronal brain sections were used for IHC. Since the CA1 region of the hippocampus is affected during AD pathogenesis ([37]), and this brain region is involved in the behavioral paradigms used here, we acquired images of CA1. This was done with an Olympus IX83 confocal microscope using the same settings, antibodies, and exposures in all mice. Images were analyzed using Imaris (Bitplane; see methods). For each mouse, 3 coronal sections were used per antibody. In each section, the same region of CA1 was acquired, using the same image frame size and resolution, at all possible depths of the section — using a Z-stack of the whole section — to allow measurement of the fluorescent antibody marker volume, which was normalized to the brain volume from which it was taken. First, we measured oxidative stress, as indicated by 4-HNE ([38]) (Abcam, ab48506).
Perfused and fixed brain slices were blocked with 10% normal donkey serum (DNS) and 0.2% triton (Sigma-Aldrich) in PBS. Antibodies, including 4-HNE (AbCam, ab48506), Iba1 (AbCam, ab5076), AT-8 (Thermo, MN1020), Amyloid β (AbCam, ab201060), diluted in PBS with 10% DNS, were incubated at 4°C overnight. Secondary antibodies including donkey-anti-goat Alexa Fluor 568 (AbCam, ab175704), donkey-anti-mouse Cy 5 (Jackson Immuno Research, 715-175-151), and donkey-anti-rabbit DyLight 488 (AbCam, ab98488) all diluted 1:500 in PBS with 1% BSA, were applied to the slices at RT for 2 hours the next day. Slices were mounted onto glass slides using DAPI containing Vectashield (H-1200). Images were taken using a confocal microscope (Olympus IX83). Three slices were used per mouse per antibody. Tiling images of the dorsal CA1 and cortex (Bregma: –1.58mm to –2.30mm) were taken using ×20 objective, acquiring a Z-stack of the whole section. Analysis of the images was done blind by an experimenter unaware of the experimental conditions or details, using Imaris (Bitplane) software. A surface reconstruction module was used to extract the data as volumes of the used markers (4-HNE, phospho-tau, amyloid β, GFAP, and Iba1). Marker volume and intensity were normalized to the corresponding brain volume. The normalized value was averaged for each triplicate and presented here. […]
Brains were then briefly removed and placed in chilled, 4% PFA for 48 h, f oll owe d by immersion in 30% sucrose in 0.1 M PBS for a furt her 48 h. Bra i ns wer e t h e n stored at -80°C, until t he y were sliced into 40µm coronal sections usinga Lei ca CM 1950cryostat. Sli ces were then washed x3 in PBS and bl oc ke d for 1 h at RT using 10% normal donkey serum (DNS) and 0.2% triton (Sigma-Aldrich) in PBS. Antibodies, including 4- HNE (1:500, AbCam, ab48506), Iba1 (1:2,000, AbCam, ab5076), GFAP (Abcam, ab53554), phospho- tau (1:1,000, Thermo, MN1020) and amyloid β (1:1,000, AbCam, ab201060) diluted in PBS with 10% DNS were incubated at 4°C overnight. The next day, the slices were washed x3 times in PBS, and secondary antibodies including donkey anti goat A l e x a Fluor 568 (AbCam, ab175704), donkey anti-mouse Cy 5 (Jackson Immuno Research, 715- 175- 151) and donkey anti-rabbit DyLight 488 (AbCam, ab98488) all diluted 1:500 in PBS with 1% BSA, were applied to the slices at RT for 2 h. Following the incubation, the slices were washed x3 times in PBS, mounted onto gl ass slides, were uniformly covered in DAPI containing Vectashield (H-1200) and coverslips were a dde d. […]

Values joined by “and” are separate entries in the source; they are usually repeats but may differ in a detail not shown here. Equal values may be shown once.

With `Cc1ccc(-c2cn3cccc(C)c3n2)cc1S(=O)(=O)N1CCNCC1` [YB-537], the “GFAP normalized volume (individual mice)” value reads like this: (CA1, 5xFAD 1 month, Females) 0.0219 and 0.0268 and 0.0382 and 0.0442 and 0.0260 and 0.0233 and 0.0143; (CA1, 5xFAD 1 month, Males) 0.0303 and 0.0430 and 0.0365 and 0.0251 and 0.0258 and 0.0274 and 0.0223 and 0.0292 and 0.0263; (CA1, 5xFAD 1 month, Males + Females) 0.0303 and 0.0430 and 0.0365 and 0.0251 and 0.0258 and 0.0442 and 0.0260 and 0.0233 and 0.0143 and 0.0219 and 0.0268 and 0.0382 and 0.0274 and 0.0223 and 0.0292 and 0.0263. Further, the GFAP vs vehicle entry is recorded as “unchanged” (CA1, 5xFAD 1 month, Females); “unchanged” (CA1, 5xFAD 1 month, Males); “unchanged” (CA1, 5xFAD 1 month, total population); “not significantly reduced” (cortex, 5xFAD 1 month, females); “significantly reduced” (cortex, 5xFAD 1 month, males); “significantly reduced” (cortex, 5xFAD 1 month, total population). The “Figure 9E, IHC signal” value is 0.0026 and 0.0035 and 0.0044 and 0.0272 and 0.0046 and 0.0194 and 0.0258 and 0.0029 and 0.0033 (Cortex); 0.0259 and 0.0223 and 0.0094 and 0.0129 and 0.0279 and 0.0329 and 0.0343 and 0.0281 and 0.0220 (Hippocampus).
